Key:
HEK293 cells = assay: Toxicity test (cell viability, ATP activity, CellTiter Glo 2.0); assay type: cell-based, human; conditions: over the range of N/P ratios, 24 hours
Experimental: In order to evaluate the toxicity of compound 11 of example 1 on HEK293 cells, the kit CellTiter Glo 2.0 (Promega) has been used.
One day before the transfection, the cells HEK293 are deposited in a 96-wells plaque: 1·10^3 cell/wells and then treated with 200 μL of DMEM, SVF 10%, without antibiotics, in order that the cells reach a 30-50% of confluence the day after.
The day of the transfection, the cells are incubated with the complex siRNA-cyclodextrin conjugate obtained in example 1 and Lipofectamine 2000.siRNA at 37° C. during 24 hours until analysis of the cells viability (ATP activity) using a kit CellTiter Glo 2.0.
For this aim 100 μL/wells of CellTiter Glo 2.0. reactant are added to the cells before the plaque be analyzed by luminescence.

[1] = test system: firefly luciferase GL3 expression in HEK293 cells; assay: KnockDown test of the luciferase GL3 gene (siRNA transfection, One-Glo luminescence); assay type: cell-based, human; conditions: siRNA complexes, N/P ratio of 1190, 24 hours, untransfected cells = 100% expression
Experimental: The cell line to be transfected is a cell line of human embryonic kidney 293 cells (HEK293). This cell line is cultivated with a DMEM medium to which SVF (10%) is added.
The cultures are made in an incubator at 37° C., 5% of CO2. The cell line HEK293 express constitutively the firefly luciferase GL3.
The HEK293 cells are deposited in a 96 wells plaque 1·10^3 cell/wells.
The siRNA which is used is the luciferase GL3 siRNA.
Transfection of cell line HEK293 with the siRNA directed against the firefly luciferase GL3 with as vector of transfection the […] obtained in example 1 or Lipofectamine 2000 (used as a positive reference of transfection) has been carried out.
The efficacy of transfection on the cells has been evaluated by a method of luminescence.
One day before the transfection, the HEK293 cells are deposited in a 96 wells plaque: 1·10^3 cell/wells treated in 200 μL of DMEM, SVF 10%, without antibiotics, in order that the cells reach a 30-50% of confluence the day after.
The day of the transfection, the 200 μL/wells of medium are withdrawn. […]
This latter is incubated at 37° C. during 24 hours until the analysis by luminescence of the KD of the gene of the luciferase (Kit One-Glo luciferase assay (Promega)).
For this aim, 100 μL/wells of reactants are added to the cells before the plaque be analyzed by luminescence.

siRNA = assay: Agarose gel electrophoresis of siRNA complex formation at increasing N/P ratios; assay type: binding; conditions: at low N/P ratios; 100 V, 40 min
Experimental: In order to characterize the formation of complexes between the siRNA and the compound 11 of the invention obtained in example 1, an electrophorese technique on agarose gel has been used.
The molecule of siRNA and of compound of example 1 have been migrated according to N/P previously chosen.
A solution of 17 μL of siRNA-compound of example 1 is prepared in sterile water and incubated during 20 minutes at ambient temperature.
Then, this solution is deposited on the gel with 3 μL of bromophenol blue before launching the migration: 100 V, 40 min.
Third, thanks to the experiment with agarose electrophoresis gel, it has been shown that capped cyclodextrine-adamantane conjugate are able to interact and to complex siRNA. Indeed, capped cyclodextrine-adamantane complex formation was evaluated at increasing N/P ratios using agarose gel electrophoresis. (FIG. 3)
N/P ratio corresponds to the amount of protonated aminated residue of the cationic species divided by the amount of phosphate residues coming from the nucleic acids.^14 This ratio enables to compare the efficiency of a cationic compound to be complexed with nucleic acids. ^14 Pharmaceutics. 2011, 3, 125-140

SMILES: OCC1O[C@@H]2O[C@@H]3C(CO)O[C@H](O[C@@H]4C5CN(CCC67CC8CC(CC(C8)C6)C7)CCCCNCC6O[C@H](O[C@@H]7C(CO)O[C@H](O[C@H]1C(O)C2O)C(O)C7O)C(O)C(O)[C@@H]6O[C@H]1OC(CO)[C@@H](O[C@H]2OC(CO)[C@@H](O[C@@H](O5)C(O)C4O)C(O)C2O)C(O)C1O)C(O)C3O (stereo partly drawn) [compose 11]
- cytotoxicity of transfection with siRNA complexes (HEK293 cells): no cytotoxicity
- knockdown of GL3 luciferase expression [1]: ≤ 50%
- binding (complexation) of siRNA, no migration of siRNA in gel (siRNA): complete binding of siRNA

Source: patent US10947323B2, “Capped cyclodextrin-hydrophobic moiety conjugate, cyclodextrin supramolecular polymer, and cyclodextrin-siRNA complex and method of synthesis thereof” (SORBONNE UNIVERSITE, priority 2016, dated 2021)
